This note sets out measurements from patent publication US20260022142A1, “MACROCYCLIC IMMUNOMODULATORS” (Bristol-Myers Squibb Company, priority 2022, published 2026).

The IC50 is the concentration that gives 50% inhibition.

Numbered stars: 1 amine (or outer) side, 2 acyl side, 3 side chain; on linkers, the order of the positions; unused ones are H or OH. Bridge positions count the residues as written; N and C are the ends. Square brackets hold non-standard residues; d marks the D form. Peptide text beside a SMILES is read from it. * marks the point of attachment. ξ: configuration not given here. Phe(3-CF3) = N[C@@H](Cc1cccc(C(F)(F)F)c1)C(=O)O; Phe(4-COOH) = N[C@@H](Cc1ccc(C(=O)O)cc1)C(=O)O; Bip = N[C@@H](Cc1ccc(-c2ccccc2)cc1)C(=O)O; NH(CH2)14COOH = O=C(O)CCCCCCCCCCCCCCN*; Phe(3-Me) = Cc1cccc(C[C@H](N)C(=O)O)c1; Phe(4-F) = N[C@@H](Cc1ccc(F)cc1)C(=O)O; γGlu = O=C(O)[C@H](CCC(=O)[*:2])N[*:1]; NH(CH2)12COOH = O=C(O)CCCCCCCCCCCCN*; Val(3-OH) = CC(C)(O)[C@H](N)C(=O)O; hArg = N=C(N)NCCCC[C@H](N)C(=O)O; 4Pal = N[C@@H](Cc1ccncc1)C(=O)O; Cha = N[C@@H](CC1CCCCC1)C(=O)O; Cit = NC(=O)NCCC[C@H](N)C(=O)O; Thr(3ξ) = CC(O)[C@H](N)C(=O)O; 12Ado = NCCCCCCCCCCCC(=O)O; hSer = N[C@@H](CCO)C(=O)O; Carboxymethyl = O=C(O)C*; Orn = NCCC[C@H](N)C(=O)O; Pra = C#CC[C@H](N)C(=O)O; Aun = NCCCCCCCCCCC(=O)O; Dab = NCC[C@H](N)C(=O)O; Dap = NC[C@H](N)C(=O)O; AEEA = NCCOCCOCC(=O)O

For this test, the target named is T1, PD-1/PD-L1 interaction (PE-labeled human PD-L1-Ig binding to Jurkat cell line over-expressing human PD-1) (Homo sapiens, UniProt Q15116).
T1 construct: expressed in transfected cells; host or cells: Jurkat
T1 sequence (Q15116 25-288): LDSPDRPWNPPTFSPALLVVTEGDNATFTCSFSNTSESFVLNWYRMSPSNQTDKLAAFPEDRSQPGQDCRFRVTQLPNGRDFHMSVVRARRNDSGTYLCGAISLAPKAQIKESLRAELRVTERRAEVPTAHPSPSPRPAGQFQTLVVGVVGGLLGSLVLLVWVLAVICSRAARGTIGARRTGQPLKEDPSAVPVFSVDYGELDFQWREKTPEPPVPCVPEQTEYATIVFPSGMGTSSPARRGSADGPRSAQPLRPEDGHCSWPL
Description: Jurkat-PD-1 Cell Binding High-Content Screening Assay (CBA). The test is classed as cell-based. The settings on record: Jurkat cell line over-expressing human PD-1; PE-labeled PD-L1-Ig 20 nM final; read-out: Jurkat hPD1-PDL1 IC50. An outline of the steps: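 Jurkat-hPD-1 cells, DMEM/10% FCS; cpd 2 h 37° C; PE-PD-L1-Ig 20 nM final, 1 h; 4% PFA fix + Hoechst 33342, 3× dPBS wash; high-content imaging read-out.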
In the case of `CC(C)C[C@H]1NC(=O)[C@H](CCCN)NC(=O)[C@H](Cc2ccc(OCC(=O)O)cc2)NC(=O)[C@H](Cc2ccc(-c3ccccc3)cc2)NC(=O)[C@H](Cc2ccc(OCC(=O)O)cc2)NC(=O)[C@H](Cc2cccc(C(F)(F)F)c2)NC(=O)[C@H](CC(=O)O)NC(=O)[C@H](Cc2ccc(OCC(=O)O)cc2)NC(=O)[C@H](Cc2c[nH]cn2)NC(=O)CSC[C@@H](C(=O)N[C@@H](CCN)C(=O)NCCCCCCCCCCCCCCC(=O)O)NC(=O)[C@H](CCC(=O)O)NC(=O)[C@H](C(C)(C)O)NC(=O)[C@H](CC2CCCCC2)NC(=O)[C@H](CCN)NC1=O` [Compound 3868] ({CH2CO}-HY(Carboxymethyl)D[Phe(3-CF3)]Y(Carboxymethyl)[Bip]Y(Carboxymethyl)[Orn][dL][Dab][Cha][Val(3-OH)]EC[Dab]-{NH(CH2)14COOH}; thioether N-14), the IC50 came to 156 nM.
The figure for `Cc1cccc(C[C@@H]2NC(=O)[C@H](CC(=O)O)NC(=O)[C@H](Cc3ccc(OCC(=O)O)cc3)NC(=O)[C@H](CN)NC(=O)CSC[C@@H](C(=O)N[C@@H](CCN)C(=O)NCCCCCCCCCCC(=O)O)NC(=O)[C@H](CO)NC(=O)[C@H](Cc3cnc[nH]3)NC(=O)[C@H](CC3CCCCC3)NC(=O)[C@H](CCN)NC(=O)[C@@H](CC(C)C)NC(=O)[C@H](CCCN)NC(=O)[C@H](Cc3ccc(OCC(=O)O)cc3)NC(=O)[C@H](Cc3ccc(-c4ccccc4)cc3)NC(=O)[C@H](Cc3ccc(OCC(=O)O)cc3)NC2=O)c1` [Compound 3696] ({CH2CO}-[Dap]Y(Carboxymethyl)D[Phe(3-Me)]Y(Carboxymethyl)[Bip]Y(Carboxymethyl)[Orn][dL][Dab][Cha]HSC[Dab][Aun]-OH; thioether N-14) is 15.1 nM; for `Cc1cccc(C[C@@H]2NC(=O)[C@H](CC(=O)O)NC(=O)[C@H](Cc3ccc(OCC(=O)O)cc3)NC(=O)[C@H](CN)NC(=O)CSC[C@@H](C(=O)NCCOCCOCC(=O)NCCCCCCCCCCC(=O)O)NC(=O)[C@H](CCCN)NC(=O)[C@H](Cc3ccc(O)cc3)NC(=O)[C@H](CC3CCCCC3)NC(=O)[C@H](CCN)NC(=O)[C@@H](CC(C)C)NC(=O)[C@H](CCCN)NC(=O)[C@H](Cc3ccc(O)cc3)NC(=O)[C@H](Cc3ccc(-c4ccccc4)cc3)NC(=O)[C@H](Cc3ccc(O)cc3)NC2=O)c1` [Compound 2519] ({CH2CO}-[Dap]Y(Carboxymethyl)D[Phe(3-Me)]Y[Bip]Y[Orn][dL][Dab][Cha]Y[Orn]C[AEEA][Aun]-OH; thioether N-14) it is 152 nM.
Regarding `CC(C)C[C@H]1NC(=O)[C@H](CCCN)NC(=O)[C@H](C(C)C)NC(=O)[C@H](Cc2ccc(-c3ccccc3)cc2)NC(=O)[C@H](C(C)C)NC(=O)[C@H](Cc2c[nH]c3ccccc23)NC(=O)[C@H](CC(=O)O)NC(=O)[C@H](Cc2ccc(OCC(=O)O)cc2)NC(=O)[C@H](CCCCNC(=N)N)NC(=O)CSC[C@@H](C(=O)NCCOCCOCC(=O)N[C@@H](CCCCN)C(=O)NCCCCCCCCCCCC(=O)O)NC(=O)[C@H](C(C)O)NC(=O)[C@H](C(C)C)NC(=O)[C@H](CC2CCCCC2)NC(=O)[C@H](CCN)NC1=O` (stereo partly drawn) [Compound 3165] ({CH2CO}-[hArg]Y(Carboxymethyl)DWV[Bip]V[Orn][dL][Dab][Cha]V[Thr(3ξ)]C[AEEA]K[12Ado]-OH; thioether N-14), the IC50 came to 30.6 nM.
As for `CC(C)C[C@H]1NC(=O)[C@H](CCCN)NC(=O)[C@H](Cc2ccc(OCC(=O)O)cc2)NC(=O)[C@H](Cc2ccc(-c3ccccc3)cc2)NC(=O)[C@H](Cc2ccc(C(=O)O)cc2)NC(=O)[C@H](Cc2cccc(C(F)(F)F)c2)NC(=O)[C@H](CC(=O)O)NC(=O)[C@H](Cc2ccc(OCC(=O)O)cc2)NC(=O)[C@H](C(C)O)NC(=O)CSC[C@@H](C(=O)N[C@@H](CCN)C(=O)NCCOCCOCC(=O)N[C@@H](CCC(=O)NCCOCCOCC(=O)NCCCCCCCCCCCCC(=O)O)C(=O)O)NC(=O)[C@H](CCC(=O)O)NC(=O)[C@H](C(C)C)NC(=O)[C@H](CC2CCCCC2)NC(=O)[C@H](CCN)NC1=O` (stereo partly drawn) [Compound 3902] ({CH2CO}-[Thr(3ξ)]Y(Carboxymethyl)D[Phe(3-CF3)][Phe(4-COOH)][Bip]Y(Carboxymethyl)[Orn][dL][Dab][Cha]VEC[Dab][AEEA][γGlu][AEEA]-{NH(CH2)12COOH}; thioether N-14), the IC50 turned out to be 67.2 nM.
Under `CC(C)C[C@H]1NC(=O)[C@H](CCCN)NC(=O)[C@H](C(C)C)NC(=O)[C@H](Cc2ccc(-c3ccccc3)cc2)NC(=O)[C@H](C(C)C)NC(=O)[C@H](Cc2c[nH]c3ccccc23)NC(=O)[C@H](CC(=O)O)NC(=O)[C@H](Cc2c[nH]cn2)NC(=O)[C@H](CCCCNC(=N)N)NC(=O)CSC[C@@H](C(=O)N[C@@H](CCN)C(=O)NCCCCCCCCCCC(=O)O)NC(=O)[C@H](CCCCN)NC(=O)[C@H](C(C)C)NC(=O)[C@H](CC2CCCCC2)NC(=O)[C@H](CCN)NC1=O` [Compound 3270] ({CH2CO}-[hArg]HDWV[Bip]V[Orn][dL][Dab][Cha]VKC[Dab][Aun]-OH; thioether N-14) stands 32 nM; under `CC(C)C[C@H]1NC(=O)[C@H](CCCN)NC(=O)[C@H](Cc2ccc(O)cc2)NC(=O)[C@H](Cc2ccc(-c3ccccc3)cc2)NC(=O)[C@H](C(C)C)NC(=O)[C@H](Cc2c[nH]c3ccccc23)NC(=O)[C@H](CC(=O)O)NC(=O)[C@H](Cc2ccc(OCC(=O)O)cc2)NC(=O)[C@H](CCCCNC(=N)N)NC(=O)CSC[C@@H](C(=O)N[C@@H](CCN)C(=O)NCCCCCCCCCCC(=O)O)NC(=O)[C@H](CCO)NC(=O)[C@H](C(C)C)NC(=O)[C@H](CC2CCCCC2)NC(=O)[C@H](CCN)NC1=O` [Compound 3408] ({CH2CO}-[hArg]Y(Carboxymethyl)DWV[Bip]Y[Orn][dL][Dab][Cha]V[hSer]C[Dab][Aun]-OH; thioether N-14), 20.9 nM; under `Cc1cccc(C[C@@H]2NC(=O)[C@H](CC(=O)O)NC(=O)[C@H](Cc3ccc(OCC(=O)O)cc3)NC(=O)[C@H]([C@@H](C)O)NC(=O)CSC[C@@H](C(=O)N[C@@H](CCN)C(=O)NCCCCCCCCCCC(=O)O)NC(=O)[C@H](CO)NC(=O)[C@H](C(C)(C)O)NC(=O)[C@H](CC3CCCCC3)NC(=O)[C@H](CCN)NC(=O)[C@@H](CC(C)C)NC(=O)[C@H](CCCN)NC(=O)[C@H](Cc3ccc(OCC(=O)O)cc3)NC(=O)[C@H](Cc3ccc(-c4ccccc4)cc3)NC(=O)[C@H](Cc3ccc(OCC(=O)O)cc3)NC2=O)c1` [Compound 2208] ({CH2CO}-TY(Carboxymethyl)D[Phe(3-Me)]Y(Carboxymethyl)[Bip]Y(Carboxymethyl)[Orn][dL][Dab][Cha][Val(3-OH)]SC[Dab][Aun]-OH; thioether N-14), 14 nM.
Regarding `Cc1cccc(C[C@@H]2NC(=O)[C@H](CC(=O)O)NC(=O)[C@H](Cc3ccc(OCC(=O)O)cc3)NC(=O)[C@H](CN)NC(=O)CSC[C@@H](C(=O)N[C@@H](C)C(=O)N[C@@H](CCCN)C(=O)N[C@H](CO)C(=O)NCCCCCCCCCCC(=O)O)NC(=O)[C@H]([C@@H](C)O)NC(=O)[C@H](C(C)C)NC(=O)[C@H](CC3CCCCC3)NC(=O)[C@H](CCN)NC(=O)[C@@H](CC(C)C)NC(=O)[C@H](CCCN)NC(=O)[C@H](CCCNC(=N)N)NC(=O)[C@H](Cc3ccc(-c4ccccc4)cc3)NC(=O)[C@H](C(C)C)NC2=O)c1` [Compound 2016] ({CH2CO}-[Dap]Y(Carboxymethyl)D[Phe(3-Me)]V[Bip]R[Orn][dL][Dab][Cha]VTCA[Orn][dS][Aun]-OH; thioether N-14), the IC50 amounted to 17.6 nM.
On to `Cc1cccc(C[C@@H]2NC(=O)[C@H](CC(=O)O)NC(=O)[C@H](Cc3ccc(OCC(=O)O)cc3)NC(=O)[C@H](C(C)O)NC(=O)CSC[C@@H](C(=O)N[C@H](CCC(=O)O)C(=O)NCCCCCCCCCCCC(=O)O)NC(=O)[C@H](C(C)O)NC(=O)[C@H](C(C)C)NC(=O)[C@H](CC3CCCCC3)NC(=O)[C@H](CCN)NC(=O)[C@@H](CC(C)C)NC(=O)[C@H](CCCN)NC(=O)[C@H](CCCNC(N)=O)NC(=O)[C@H](Cc3ccc(-c4ccccc4)cc3)NC(=O)[C@H](C(C)C)NC2=O)c1` (stereo partly drawn) [Compound 3553] ({CH2CO}-[Thr(3ξ)]Y(Carboxymethyl)D[Phe(3-Me)]V[Bip][Cit][Orn][dL][Dab][Cha]V[Thr(3ξ)]C[dE][12Ado]-OH; thioether N-14), for which the IC50 was 37.3 nM.
For the compound `C#CC[C@H](NC(=O)COCCOCCNC(=O)[C@H](CCN)NC(=O)[C@@H]1CSCC(=O)N[C@@H](Cc2ccncc2)C(=O)N[C@@H](Cc2ccc(OCC(=O)O)cc2)C(=O)N[C@@H](CC(=O)O)C(=O)N[C@@H](Cc2c[nH]c3ccccc23)C(=O)N[C@@H](C(C)C)C(=O)N[C@@H](Cc2ccc(-c3ccccc3)cc2)C(=O)N[C@@H]([C@@H](C)CC)C(=O)N[C@@H](CCCN)C(=O)N[C@H](CC(C)C)C(=O)N[C@@H](CCN)C(=O)N[C@@H](CC(C)C)C(=O)N[C@@H](C(C)C)C(=O)N[C@@H]([C@@H](C)O)C(=O)N1)C(=O)N[C@@H](CN)C(=O)NCCCCCCCCCCC(=O)O` [Compound 1193] ({CH2CO}-[4Pal]Y(Carboxymethyl)DWV[Bip]I[Orn][dL][Dab]LVTC[Dab][AEEA][Pra][Dap][Aun]-OH; thioether N-14), the IC50 stood at 10.3 nM.
On to `Cc1cccc(C[C@@H]2NC(=O)[C@H](CC(=O)O)NC(=O)[C@H](Cc3ccc(OCC(=O)O)cc3)NC(=O)[C@H](Cc3ccc(F)cc3)NC(=O)CSC[C@@H](C(=O)N[C@@H](CCN)C(=O)NCCOCCOCC(=O)NCCCCCCCCCCC(=O)O)NC(=O)[C@H](CCC(=O)O)NC(=O)[C@H](C(C)C)NC(=O)[C@H](CC3CCCCC3)NC(=O)[C@H](CCN)NC(=O)[C@@H](CC(C)C)NC(=O)[C@H](CCCN)NC(=O)[C@H](Cc3ccc(OCC(=O)O)cc3)NC(=O)[C@H](Cc3ccc(-c4ccccc4)cc3)NC(=O)[C@H](Cc3ccc(OCC(=O)O)cc3)NC2=O)c1` [Compound 3800] ({CH2CO}-[Phe(4-F)]Y(Carboxymethyl)D[Phe(3-Me)]Y(Carboxymethyl)[Bip]Y(Carboxymethyl)[Orn][dL][Dab][Cha]VEC[Dab][AEEA][Aun]-OH; thioether N-14), for which the concentration for half-maximal inhibition (IC50) is 12.1 nM.
